Measurements taken from ChEMBL document CHEMBL1155809, “Design, synthesis, and antihepatocellular carcinoma activity of nitric oxide releasing derivatives of oleanolic acid” (J Med Chem, 2008).
The source made the active and inactive calls. The calls are words filed in the database; no cut-off is given here.

Assays:
[1] = Cytotoxicity against human Hep3B cells assessed as cell death at 0.1 uM after 24 hrs by lactate dehydrogenase release assay; type: functional, Hep 3B2
HepG2 [2] = test: Cytotoxicity against human HepG2 cells assessed as cell death at 0.01 uM after 24 hrs by lactate dehydrogenase release assay; type: functional
HepG2 [3] = test: Cytotoxicity against human HepG2 cells assessed as cell death at 0.1 uM after 24 hrs by lactate dehydrogenase release assay; type: functional
PC-3 [4] = test: Cytotoxicity against human PC3 cells assessed as cell death by lactate dehydrogenase release assay; type: functional, cell-based
HEK293 [5] = test: Cytotoxicity against HEK293 cells assessed as cell death by lactate dehydrogenase release assay; type: functional, cell-based; conditions: Homo sapiens
[6] = Cytotoxicity against human Hep3B cells assessed as cell death at 0.01 uM after 24 hrs by lactate dehydrogenase release assay; type: functional, Hep 3B2
Mus musculus = test: Toxicity in BALB/c mouse at 15 to 100 mg/kg, ip daily for 3 days assessed after 15 days; type: organism-based; parameters: dose 15-100 mg/kg, route intraperitoneal; conditions: in vivo, 360 h
MCF7 [7] = test: Cytotoxicity against human MCF7 cells assessed as cell death by lactate dehydrogenase release assay; type: functional, cell-based
Hep 3B2 = test: Cytotoxicity against human Hep3B cells assessed as levels of nitric oxide production at 100 uM after 30 to 300 mins by colorimetric assay; type: functional, cell-based
HepG2 [8] = test: Cytotoxicity against human HepG2 cells assessed as levels of nitric oxide production at 100 uM after 30 to 300 mins by colorimetric assay; type: functional, cell-based
PC-3 [9] = test: Cytotoxicity against human PC3 cells assessed as levels of nitric oxide production at 100 uM after 30 to 300 mins by colorimetric assay; type: functional, cell-based
[10] = Cytotoxicity against human Hep3B cells assessed as cell death at 1 uM after 24 hrs by lactate dehydrogenase release assay; type: functional, Hep 3B2
HepG2 [11] = test: Cytotoxicity against human HepG2 cells assessed as cell death at 1 uM after 24 hrs by lactate dehydrogenase release assay; type: functional
[12] = Antitumor activity against human Hep3B cells xenografted in non-obese diabetic SCID mouse assessed as reduction in tumor weight at 15 mg/kg, ip after 35 days; type: functional, Hep 3B2; conditions: route intraperitoneal
MCF7 [13] = test: Cytotoxicity against human MCF7 cells assessed as levels of nitric oxide production at 100 uM after 30 to 300 mins by colorimetric assay; type: functional, cell-based
HepG2 [14] = test: Cytotoxicity against human HepG2 cells assessed as cell death at 0.001 uM after 24 hrs by lactate dehydrogenase release assay; type: functional
HEK293 [15] = test: Cytotoxicity against human HEK293 cells assessed as levels of nitric oxide production at 100 uM after 30 to 300 mins by colorimetric assay; type: functional, cell-based
[16] = Antitumor activity against human Hep3B cells xenografted in non-obese diabetic SCID mouse assessed as reduction in tumor size at 15 mg/kg, ip after 35 days; type: functional, Hep 3B2; conditions: route intraperitoneal
HeLa [17] = test: Cytotoxicity against human HeLa cells assessed as cell death by lactate dehydrogenase release assay; type: functional, cell-based
[18] = Cytotoxicity against human Hep3B cells assessed as cell death at 0.001 uM after 24 hrs by lactate dehydrogenase release assay; type: functional, Hep 3B2
HeLa [19] = test: Cytotoxicity against human HeLa cells assessed as levels of nitric oxide production at 100 uM after 30 to 300 mins by colorimetric assay; type: functional, cell-based

SMILES	Activity [1] [%]	Activity (HepG2 [2]) [%]	Activity (HepG2 [3]) [%]	Activity (PC-3 [4])	Activity (HEK293 [5])	Activity [6] [%]	Activity (Mus musculus)	Activity (MCF7 [7])	Activity (Hep 3B2)	Activity (HepG2 [8])	Activity (PC-3 [9])	Activity [10] [%]	Activity (HepG2 [11]) [%]	Activity [12] [g]	Activity (MCF7 [13])	Activity (HepG2 [14]) [%]	Activity (HEK293 [15])	Activity [16] [mm3]	Activity (HeLa [17])	Activity [18] [%]	other results
CC1(C)CC[C@]2(C(=O)O)CC[C@]3(C)C(=CC[C@@H]4[C@@]5(C)CC[C@H](O)C(C)(C)[C@@H]5CC[C@]43C)[C@@H]2C1 [OLEANOLIC_ACID]	0	0	0	inactive	inactive	0	Non-toxic	inactive	Active	Active	inactive	0	0	0.961	inactive	0	inactive	668	inactive	0	Activity (HeLa [19]): inactive
CC(CCOc1no[n+]([O-])c1S(=O)(=O)c1ccccc1)OC(=O)CCC(=O)O[C@H]1CC[C@]2(C)[C@H]3CC=C4[C@@H]5CC(C)(C)CC[C@]5(C(=O)O)CC[C@@]4(C)[C@]3(C)CC[C@H]2C1(C)C (stereo partly drawn)	92.4	13.34	93.5	inactive	inactive	14.23	Non-toxic	inactive	Active	Active	inactive	100	100	0.262	inactive	1.7	inactive	232	inactive	4.7	Activity (HeLa [19]): inactive
CC(CCOc1no[n+]([O-])c1S(=O)(=O)c1ccccc1)OC(=O)[C@]12CCC(C)(C)C[C@H]1C1=CC[C@@H]3[C@@]4(C)CC[C@H](O)C(C)(C)[C@@H]4CC[C@@]3(C)[C@]1(C)CC2 (stereo partly drawn)	63.51	6.67	55.11	inactive	inactive	11.05	Non-toxic	inactive	Active	Active	inactive	92.18	89.21	0.332	inactive	0	inactive	289	inactive	0	Activity (HeLa [19]): inactive
